The record followed here is US20160271072A1, “POLYMER NANOPARTICLES CONTAINING MULTIPLE AGENTS AND METHODS THEREOF” (THE UNIVERSITY OF NORTH CAROLINA AT CHAPEL HILL, priority 2013, published 2016).

One data set relates to A375-luc cells. Kind of data set: Cell viability (MTS) and Chou-Talalay drug combination analysis in A375-luc cells. The following applies: single agent, free or in NP, 2 days drug exposure. Type of data set: cell-based. As to the method:
Cells were seeded in 96-well plates for 24 h at a density of 2×10^3 cells/well. Cell masses that were viable after 2 days of drug exposure were determined by MTS assay. A CellTiter 96 AQueous One Solution Cell Proliferation Assay (Promega, Madison, Wis.) kit containing the tetrazolium compound MTS was used to assay cell viability according to the manufacturer's protocols.
Drug combination analysis was performed by using the method described by Chou and Talalay.
We evaluated the degree of synergy between RAPA and CDDP in terms of cytotoxicity toward A375-luc cells in culture. […] The cytotoxicity of combined CDDP and RAPA was enhanced by NP delivery over free drug combination.

Data set [1] can be described thus: Serum biochemical value analysis, hematology and organ H&E. Type of data set: in vivo, mice. Particulars: for blood cell counts (RBC, PLT, WBC, HCT, HGB) vs untreated control: healthy nude mice, three dosages; for ALT / AST / BUN / Creatinine: serum after three injections, n = 5. As to the method: After three injections, blood was collected and centrifuged at 4000 rpm for 5 min to obtain the serum. Blood urea nitrogen (BUN), creatinine, serum aspartate aminotransferase (AST) and alanine aminotransferase (ALT) levels, were assayed as indicators of renal and hepatic function. Whole blood was collected from healthy nude mice after three repeated treatments. Red blood cells (RBC), white blood cells (WBC), platelets (PLT), hemoglobin (HGB) and hematocrits (HCT) were counted for the detection of myelosuppression. Organs (heart, liver, spleen, lung, and kidney) were fixed and sectioned for H&E staining as to evaluate the organ-specific toxicity.

Data set [2] in a line: Drug loading and encapsulation efficiency of cores and PLGA NPs. Particulars: DOPA coated cores encapsulated separately, DL up to approximately 5 wt %; n=5. Type of data set: physicochemical. Here is the method:
The loading and encapsulation efficiency of Rapamycin was measured using High-performance Liquid Chromatography (HPLC, Waters, λ=277 nm); the loading and encapsulation efficiency of CDDP was measured using Inductively Coupled Plasma-Mass Spectroscopy (ICP-MS, NexION™ 300, Perkin Elmer Inc); the loading efficiency of GMP was measured both by Ultraviolet-visible spectrometer (UV, DU®800, Beckman Coulter) and ^3H labeled CMP incorporation using a Liquid Scintillation Analyzer (TRI-CARB 2900 TR, Packard Bioscience Co). The size distribution of particle was determined using a Malvern ZetaSizer Nano series (Westborough, Mass.). TEM images of NPs were acquired using a JEOL 100CX II TEM (JEOL, Japan). The NPs were negatively stained with 2% uranyl acetate. Approximately 100 NPs were analyzed for calculating the average number of CDDP cores per PLGA NP.
DL and EE of cisplatin were measured using Inductively Coupled Plasma-Mass Spectroscopy (ICP-MS, NexION™ 300, Perkin Elmer Inc); LE and EE of GMP were both measured by Ultraviolet-Visible Spectroscopy (UV, DU®800, Beckman Coulter) and ^3H labeled cytidine 5′ monophosphate (CMP) [5-^3H] disodium salt (Moravek Bio Inc, 1 mCi/mL) incorporation using a Liquid Scintillation Analyzer (TRI-CARB 2900 TR, Packard Bioscience Co). The size distribution of particles was determined using a Malvern ZetaSizer Nano series (Westborough, Mass.). […]

The test system of another data set is UMUC3 cells. In words: MTT cell viability and combination index on UMUC3 cells. Type of data set: cell-based, human. Particulars: 48 h treatment. Here is the method:
MTT (3-[4,5-dimethylthiazol-2-yl]-2,5-diphenyltetrazolium bromide) assay was conducted to detect in vitro viability of free GMP, cisplatin and their combinations as well as PLGA GMP NP, PLGA cisplatin NP and PLGA Combo NP. In Brief, cells were seeded in 96-well plates with a density of 3,000 cells per well 24 h prior to drug treatment. On the second day, cells were treated with free drugs or the drug combination at a series of dilutions with various molar ratios. Forty-eight h post treatment, 20 μL of MTT (5 mg/mL) reagent was added for another 4 h at 37° C. The medium was then discarded and the formed formazan salt was dissolved in 150 μL of DMSO. The absorbance in each well was read at the wavelength of 570 nm using a multidetection microplate reader (Plate […]). Each concentration was tested in five wells and data presented as mean±SD. […] Combination Index (CI) Analysis of free drug combination based on the Chou and Talalay method (T. C. Chou, P. Talalay, Adv. Enzyme Regul. 1984, 22, 27) was conducted using CompuSyn software. Briefly, for each level of Fa, the CI values of cisplatin and GMP combinations were calculated according to the following equation: […] CI values of the drug combinations were drawn as a function of Fa. […] (Y. Han, Z. He, […]. Bronich, R. Jordan, […], Mol. Pharm. 2012, 9, 2302).

Data set [3] has as its system stroma-rich UMUC3 bladder cancer xenograft. In words: Anti-tumor efficacy in stroma-rich UMUC3 bladder cancer xenografts (TUNEL, PCNA, Pt-DNA adduct, western blot). Type of data set: in vivo, mice. The following applies: tumor lysates after three doses. Background: In western blotting, separated proteins are transferred to a membrane and probed.

By IC50 is commonly meant the concentration needed to halve the response being measured.

As for `[NH2][Pt]([NH2])([Cl])[Cl]` [CDDP, cisplatin], the IC50 in the data set with A375-luc cells amounted to 10 µM. In data set [1], the “blood cell counts (RBC, PLT, WBC, HCT, HGB) vs untreated control” value is recorded as “significantly reduced”; the ALT came to 59 ± 1 U/L; the AST was found to be 216 ± 15 U/L; the BUN is on record as 25 ± 1 mg/dL. The molecule also displayed a Creatinine in data set [1] of 0.2 mg/dL. Moreover, in data set [2], the “EE into PLGA NP” value was found to be 74.0±10.1%.

For the molecule Gemcitabine monophosphate [GMP], the IC50 in the data set on UMUC3 cells came to 34.8 µM. Further, the “expression of ERCC1 and XPA (western blot)” value in data set [3] is “down-regulation”. Moreover, in data set [1], the “blood cell counts (RBC, PLT, WBC, HCT, HGB) vs untreated control” value was “significantly reduced”; the ALT worked out at 47 ± 3 U/L; the AST is given as 122 ± 20 U/L; the BUN turned out to be 24 ± 2 mg/dL. The Creatinine in data set [1] turned out to be 0.2 mg/dL. Also, the “EE into PLGA NP” value in data set [2] is reported as 70.6±2.5%.

On to `CO[C@H]1C[C@@H]2CC[C@@H](C)[C@@](O)(O2)C(=O)C(=O)N2CCCC[C@H]2C(=O)O[C@H]([C@H](C)C[C@@H]2CC[C@@H](O)[C@H](OC)C2)CC(=O)[C@H](C)/C=C(\C)[C@@H](O)[C@@H](OC)C(=O)[C@H](C)C[C@H](C)/C=C/C=C/C=C/1C` [RAPA, rapamycin], for which the half-inhibitory concentration (IC50) with A375-luc cells (48 h) was found to be 16 µM.
